Here are results for 16 molecules from US20220306647A1, “NOVEL INDOLE-2-CARBOXAMIDES ACTIVE AGAINST THE HEPATITUS B VIRUS (HBV)” (AICURIS GMBH & CO. KG, priority 2019, published 2022).

The target in one experiment is T1, HBV core protein (C-terminal truncated core protein, 149 amino acids of the N-terminal assembly domain, BODIPY-FL labelled) (UniProt P03146).
T1 construct: fused on or other part: A single cysteine added after residue 149, at position 150; It carries the BODIPY-FL maleimide label
T1 sequence (P03146 whole entry, the tested form may be a part): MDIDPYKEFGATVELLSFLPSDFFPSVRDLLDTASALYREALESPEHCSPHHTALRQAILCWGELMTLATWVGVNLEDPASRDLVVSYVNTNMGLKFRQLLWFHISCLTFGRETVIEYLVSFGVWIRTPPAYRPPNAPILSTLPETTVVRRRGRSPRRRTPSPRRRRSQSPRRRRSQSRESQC
The experiment can be described thus: Biochemical capsid assembly assay (fluorescence quenching). To be noted: assembly started with NaCl, fluorescence read after 6 min, read-out: Assembly activity. The protocol:
The screening for assembly effector activity was done based on a fluorescence quenching assay published by Zlotnick et al. (2007). The C-terminal truncated core protein containing 149 amino acids of the N-terminal assembly domain fused to a unique cysteine residue at position 150 and was expressed in E. coli using the pET expression system (Merck Chemicals, Darmstadt). Purification of core dimer protein was performed using a sequence of size exclusion chromatography steps. In brief, the cell pellet from 1 L BL21 (DE3) Rosetta2 culture expressing the coding sequence of core protein cloned NdeI/XhoI into expression plasmid pET21b was treated for 1 h on ice with a native lysis buffer (Qproteome Bacterial Protein Prep Kit; Qiagen, Hilden). After a centrifugation step the supernatant was precipitated during 2 h stirring on ice with 0.23 g/ml of solid ammonium sulfate. Following further centrifugation the resulting pellet was resolved in buffer A (100 mM Tris, pH 7.5; 100 mM NaCl; 2 mM DTT) and was subsequently loaded onto a buffer A equilibrated CaptoCore 700 column (GE HealthCare, Frankfurt). The column flow through containing the assembled HBV capsid was dialyzed against buffer N (50 mM NaHCO3 pH 9.6; 5 mM DTT) before urea was added to a final concentration of 3M to dissociate the capsid into core dimers for 1.5 h on ice. The protein solution was then loaded onto a 1L Sephacryl S300 column. After elution with buffer N core dimer containing fractions were identified by SDS-PAGE and subsequently pooled and dialyzed against 50 mM HEPES pH 7.5; 5 mM DTT. To improve the assembly capacity of the purified core dimers a second round of assembly and disassembly starting with the addition of 5 M NaCl and including the size exclusion chromatography steps described above was performed. From the last chromatography step core dimer containing fractions were pooled and stored in aliquots at concentrations between 1.5 to 2.0 mg/ml at −80° C.
Immediately before labelling the core protein was reduced by adding freshly prepared DTT in a final concentration of 20 mM. After 40 min incubation on ice storage buffer and DTT was removed using a Sephadex G-25 column (GE HealthCare, Frankfurt) and 50 mM HEPES, pH 7.5. For labelling 1.6 mg/ml core protein was incubated at 4° C. and darkness overnight with BODIPY-FL maleimide (Invitrogen, Karlsruhe) in a final concentration of 1 mM. After labelling the free dye was removed by an additional desalting step using a Sephadex G-25 column. Labelled core dimers were stored in aliquots at 4° C. In the dimeric state the fluorescence signal of the labelled core protein is high and is quenched during the assembly of the core dimers to high molecular capsid structures. The screening assay was performed in black 384 well microtiter plates in a total assay volume of 10 μl using 50 mM HEPES pH 7.5 and 1.0 to 2.0 μM labelled core protein. Each screening compound was added in 8 different concentrations using a 0.5 log-unit serial dilution starting at a final concentration of 100 μM, 31.6 μM or 10 μM, In any case the DMSO concentration over the entire microtiter plate was 0.5%. The assembly reaction was started by the injection of NaCl to a final concentration of […] which induces the assembly process to approximately 25% of the maximal quenched signal. 6 min after starting the reaction the fluorescence signal was measured using a Clariostar plate reader (BMG Labtech, Ortenberg) with an excitation of 477 nm and an emission of 525 nm. As 100% and 0% assembly control HEPES buffer containing 2.5 M and 0 M NaCl was used. Experiments were performed thrice in triplicates. EC50 values were calculated by non-linear regression analysis using the Graph Pad Prism 6 software (GraphPad Software, La Jolla, USA).
`CN(CCO)C(=O)c1noc2c1CN(C(=O)c1cc3ccccc3[nH]1)CC2` [Example 22, N-(2-hydroxyethyl)-5-(1H-indole-2-carbonyl)-N-methyl-4H,5H,6H,7H-[1,2]oxazolo[4,5-c]pyridine-3-carboxamide]: the IC50 is less than 5 µM.
Regarding `O=C(c1cc2ccccc2[nH]1)N1CCc2nn3c(c2C1)C(=O)N(CC(F)(F)F)C1(CC3)CC1` [Example 148, 4′-(1H-indole-2-carbonyl)-13′-(2,2,2-trifluoroethyl)-4′,8′,9′,13′-tetraazaspiro[cyclopropane-1,12′-tricyclo[7.5.0.0^2,7]tetradecane]-1′,7′-dien-14′-one], the IC50 is less than 5 µM.
Still for that read-out and setting: the same measure for `Cc1c(F)ccc2[nH]c(C(=O)N3CCc4n[nH]c(C(=O)N(C)C5(c6ncc(C(=O)O)cn6)CC5)c4C3)cc12` [Example 72, 2-{1-[N-methyl-5-(5-fluoro-4-methyl-1H-indole-2-carbonyl)-2H,4H,5H,6H,7H-pyrazolo[4,3-c]pyridine-3-amido]cyclopropyl}pyrimidine-5-carboxylic acid]: less than 5 µM; for `C[C@@H](NC(=O)c1ncn2c1CN(C(=O)c1cc3ccccc3[nH]1)CC2)C(F)(F)F` [Example 138, 7-(1H-indole-2-carbonyl)-N-[(2R)-1,1,1-trifluoropropan-2-yl]-5H,6H,7H,8H-imidazo[1,5-a]pyrazine-1-carboxamide]: less than 5 µM; for `O=C(c1cc2ccccc2[nH]1)N1CCc2nn3c(c2C1)C(=O)N(CCO)C1(CC1)C3` [Example 140, 4′-(2-hydroxyethyl)-12′-(1H-indole-2-carbonyl)-4′,7′,8′,12′-tetraazaspiro[cyclopropane-1,5′-tricyclo[7.4.0.0^2,7]tridecane]-1′,8′-dien-3′-one]: less than 5 µM.
For the molecule `O=C(O)c1ccc(C2(NC(=O)c3cnn4c3CN(C(=O)c3cc5ccccc5[nH]3)CC4)CC2)cc1` [Example 137, 4-{1-[5-(1H-indole-2-carbonyl)-4H,5H,6H,7H-pyrazolo[1,5-a]pyrazine-3-amido]cyclopropyl}benzoic acid], the IC50 was less than 5 µM.
As for `COC(=O)CN1C(=O)c2c3c(nn2CCC12CC2)CCN(C(=O)c1cc2ccccc2[nH]1)C3` [Example 149, methyl 2-[4′-(1H-indole-2-carbonyl)-14′-oxo-4′, 8′,9′,13′-tetraazaspiro[cyclopropane-1,12′-tricyclo[7.5.0.0^2,7]tetradecane]-1′,7′-dien-13′-yl]acetate], the IC50 is less than 5 µM.
`C[C@@H](NC(=O)c1onc2c1CN(C(=O)c1cc3c(Cl)cccc3[nH]1)CC2)C(F)(F)F` [Example 118, 5-(4-chloro-1H-indole-2-carbonyl)-N-[(2R)-1,1,1-trifluoropropan-2-yl]-4H,5H,6H,7H-[1,2]oxazolo[4,3-c]pyridine-3-carboxamide]: the IC50 was less than 5 µM.
Regarding `CN(C(=O)c1cnn2c1CN(C(=O)c1cc3ccccc3[nH]1)CC2)C1(COc2ccc(C(=O)O)cc2Cl)CC1` [Example 101, 3-chloro-4-({1-[N-methyl-5-(1H-indole-2-carbonyl)-4H,5H,6H,7H-pyrazolo[1,5-a]pyrazine-3-amido]cyclopropyl}methoxy)benzoic acid], the IC50 was less than 5 µM.
Same read-out and setting: the same measure for `O=C(NC1(COC(F)F)CC1)c1onc2c1CN(C(=O)c1cc3ccccc3[nH]1)CC2` [Example 132, N-{1-[(difluoromethoxy)methyl]cyclopropyl}-5-(1H-indole-2-carbonyl)-4H,5H,6H,7H-[1,2]oxazolo[4,3-c]pyridine-3-carboxamide]: less than 5 µM; for `O=C(O)c1cnc(C2(NC(=O)c3cnn4c3CN(C(=O)c3cc5ccccc5[nH]3)CC4)CC2)nc1` [Example 29, 2-{1-[5-(1H-indole-2-carbonyl)-4H,5H,6H,7H-pyrazolo[1,5-a]pyrazine-3-amido]cyclopropyl}pyrimidine-5-carboxylic acid]: less than 100 µM.
The same measure, in the same setting: as for `CN(C(=O)c1[nH]nc2c1CN(C(=O)c1cc3c(Cl)cccc3[nH]1)CC2)C1(c2ncc(C(=O)O)cn2)CC1` [Example 70, 2-{1-[N-methyl-5-(4-chloro-1H-indole-2-carbonyl)-2H,4H,5H,6H,7H-pyrazolo[4,3-c]pyridine-3-amido]cyclopropyl}pyrimidine-5-carboxylic acid], the figure is less than 5 µM; as for `CN(C(=O)c1[nH]nc2c1CN(C(=O)c1cc3c(F)c(F)ccc3[nH]1)CC2)C1(c2ncc(C(=O)O)cn2)CC1` [Example 71, 2-{1-[N-methyl-5-(4,5-difluoro-1H-indole-2-carbonyl)-2H,4H,5H,6H,7H-pyrazolo[4,3-c]pyridine-3-amido]cyclopropyl}pyrimidine-5-carboxylic acid], less than 5 µM.

For another experiment, the system named is HBV (HepAD38 cells). The experiment can be described thus: HBV replication assay: determination of HBV DNA from the supernatants of HepAD38 cells. It counts as cell-based. To be noted: Hepatitis B virus, 144 h, HBV DNA in HepAD38 supernatant at day 6, qPCR, read-out: Cell activity. The protocol:
Determination of HBV DNA from the Supernatants of HepAD38 Cells
The anti-HBV activity was analysed in the stable transfected cell line HepAD38, which has been described to secrete high levels of HBV virion particles (Ladner et al., 1997). In brief, HepAD38 cells were cultured at 37° C. at 5% CO2 and 95% humidity in 200 μl maintenance medium, which was Dulbecco's modified Eagle's medium/Nutrient Mixture F-12 (Gibco, Karlsruhe), 10% fetal bovine serum (PAN Biotech Aidenbach) supplemented with 50 μg/ml penicillin/streptomycin (Gibco, Karlsruhe), 2 mM L-glutamine (PAN Biotech, Aidenbach), 400 μg/ml G418 (AppliChem, Darmstadt) and 0.3 μg/ml tetracycline. Cells were subcultured once a week in a 1:5 ratio, but were usually not passaged more than ten times. For the assay 60,000 cells were seeded in maintenance medium without any tetracycline into each well of a 96-well plate and treated with serial half-log dilutions of test compound. To minimize edge effects the outer 36 wells of the plate were not used but were filled with assay medium. On each assay plate six wells for the virus control (untreated HepAD38 cells) and six wells for the cell control (HepAD38 cells treated with 0.3 μg/ml tetracycline) were allocated, respectively. In addition, one plate set with reference inhibitors like BAY 41-4109, entecavir, and lamivudine instead of screening compounds were prepared in each experiment. In general, experiments were performed thrice in triplicates. At day 6 HBV DNA from 100 μl filtrated cell culture supernatant (AcroPrep Advance 96 Filter Plate, […] Supor membran, PALL GmbH, Dreieich) was automatically purified on the MagNa Pure LC instrument using the MagNA Pure 96 DNA and Viral NA Small Volume Kit (Roche Diagnostics, Mannheim) according to the instructions of the manufacturer. EC50 values were calculated from relative copy numbers of HBV DNA In brief, 5 μl of the 100 μl eluate containing HBV DNA were subjected to PCR LC480 Probes Master Kit (Roche) together with 1 μM antisense primer […], 0.5 μM sense primer […], 0.3 μM hybprobes […]-FL and LC640-[…]-PH (TIBMolBiol, Berlin) to a final volume of 12.5 μl. The PCR was performed on the Light Cycler 480 real time system (Roche Diagnostics, Mannheim) using the following protocol: Pre-incubation for 1 min at 95° C., amplification: 40 cycles×(10 sec at 95° C., 50 sec at 60° C., 1 sec at 70° C.), cooling for 10 sec at 40° C. Viral load was quantitated against known standards using HBV plasmid DNA of pCH-9/3091 (Nassal et al., 1990, Cell 63: 1357-1363) and the LightCycler 480 SW 1.5 software (Roche Diagnostics, Mannheim) and EC50 values were calculated using non-linear regression with GraphPad Prism 6 (GraphPad Software Inc., La Jolla, USA).
For `CN(CCO)C(=O)c1noc2c1CN(C(=O)c1cc3ccccc3[nH]1)CC2` [Example 22, N-(2-hydroxyethyl)-5-(1H-indole-2-carbonyl)-N-methyl-4H,5H,6H,7H-[1,2]oxazolo[4,5-c]pyridine-3-carboxamide], the EC50 was less than 1 µM.
Consider `CN(C(=O)c1noc2c1CN(C(=O)c1cc3ccccc3[nH]1)CC2)C1(COC(=O)c2ccccc2)CC1` [Example 9, {1-[N-methyl-5-(1H-indole-2-carbonyl)-4H,5H,6H,7H-[1,2]oxazolo[4,5-c]pyridine-3-amido]cyclopropyl}methyl benzoate], for which the EC50 was less than 1 µM.
For the molecule `O=C(c1cc2ccccc2[nH]1)N1CCc2onc(C(=O)N3CCC(F)(F)C3)c2C1` [Example 25, 2-[3-(3,3-difluoropyrrolidine-1-carbonyl)-4H,5H,6H,7H-[1,2]oxazolo[4,5-c]pyridine-5-carbonyl]-1H-indole], the EC50 was in the range of 1 to 10 µM.
For the molecule `O=C(c1cc2ccccc2[nH]1)N1CCc2onc(C(=O)N3CCCC34CC4)c2C1` [Example 1, 2-(3-{4-azaspiro[2.4]heptane-4-carbonyl}-4H,5H,6H,7H-[1,2]oxazolo[4,5-c]pyridine-5-carbonyl)-1H-indole], the EC50 lay in the range of 1 to 10 µM.
